According to US12558327B2, “Methods and compositions for treating sleep apnea” (The Brigham and Women's Hospital, Inc., priority 2019, dated 2026):
Values joined by “and” are separate entries in the source; they are usually repeats but may differ in a detail not shown here. Identical values can stand only once. “Also recorded” adds a separate entry of the source. Like-named read-outs stand apart in the source and are kept apart here.

What was measured:
patients with mild OSA = conditions: 15 patients with mild OSA; cited from earlier work
patients with OSA = conditions: drug taken alone, cited from earlier work
OSA patients [1] = conditions: for NREM (atomoxetine) and REM (oxybutynin) specific AHI / effect on ventilation during sleep / oxygen saturation / oxygen levels compared to placebo: each drug administered alone; for OSA severity (apnea hypopnea index, AHI): nine moderate-to-severe OSA patients, REM and NREM sleep
Description: In a preliminary investigation, nine patients equipped with a pneumotachograph attached to an oronasal mask to measure ventilation and an esophageal catheter to estimate the arousal threshold, performed a sleep study on each of these 4 conditions: placebo, atomoxetine alone, oxybutynin alone and ato-oxy.

[2] = tested on: OSA patients; normal controls; conditions: cited from earlier work
[3] = in vivo; cited from earlier work
OSA patients [4] = assay: Atomoxetine plus pimavanserin sleep study in 5 OSA patients (Example 4); type: in vivo, human; conditions: inferred from combination effect and atomoxetine-alone reduction
Protocol: We administered the recently-approved selective 5-HT2A inverse agonist pimavanserin 34 mg to block the EEG arousal response to CO2 in association with atomoxetine 80 mg and measured the effect of this combination on OSA severity, arousal threshold and collapsibility in 5 patients. These doses were chosen as they are the usual effective doses for attention-deficit disorder and delusion-hallucinations in patients with Parkinson's disease, respectively, based on prescribing information. Patients were also instrumented with an oronasal mask, and in 4/5 patients, esophageal catheter and genioglossus intramuscular electrodes. […] The effect on the arousal threshold is noteworthy, because pimavenserin was administered together with atomoxetine, a wake-promoting drug that, as described above, caused a reduction in arousal threshold by ˜18% compared to placebo in OSA patients in a previous trial. This means that pimavanserin could actually increase the respiratory arousal threshold by ˜50%.

OSA patients [5] = conditions: cited from earlier work
OSA subjects = assay: Tiagabine in 14 OSA subjects; type: in vivo, human
Description: As described herein, drugs that increase sleep depth (and slow wave sleep (SWS) in particular) such as tiagabine or gabapentin could help the resolution of OSA. […] The pharmacological increase in slow wave sleep (SWS) could be an ideal mechanism for raising the arousal threshold to treat OSA, particularly since SWS seems to be a “protective state” against OSA. […] The reason for improvement likely relates to changes in the non-anatomical factors that contribute to OSA during SWS such as reduced arousability, thereby enabling a higher activation of upper airway dilator muscles. […] Thus, as described herein, drugs such as gabapentin that cause 20-60% increase of SWS^20,21, are ideal candidates for the treatment of OSA in association with atomoxetine.

OSA patients [6] = conditions: cited from earlier work; remark: listed apart in the source
[7] = tested on: subjects with and without OSA; conditions: cited from earlier work
OSA patients [8] = conditions: zopiclone 7.5 mg, 1 night, n=12; cited from earlier work
OSA patients [9] = conditions: zopiclone n=14 vs placebo n=16; 30 days; non-significant; cited from earlier work
[10] = protriptyline 20 mg, 4 weeks, 5 obese men with severe OSA (Brownell)
[11] = seven patients with a low arousal threshold (Eckert)
[12] = zopiclone 7.5 mg, 21 healthy individuals and OSA patients

## CNCC[C@@H](Oc1ccccc1C)c1ccccc1 [atomoxetine]
Patients with mild OSA
  AHI: did not improve
  daytime sleepiness: significantly improve
Patients with OSA
  success in reducing OSA severity / the AHI: modest success; also recorded: without success
OSA patients [1]; analysis of ventilatory parameters during all night
  share of the improvement in ventilation during sleep accounted for: at least 70%
OSA patients [1]
  NREM (atomoxetine) and REM (oxybutynin) specific AHI: did not respectively improve
  effect on ventilation during sleep: responsible for most of the ventilatory improvement
  oxygen saturation / oxygen levels compared to placebo: improved oxygen saturation
  OSA severity (apnea hypopnea index, AHI): did not improve OSA severity
OSA patients [1]; nine OSA patients, atomoxetine p=0.03, combination p>0.7
  reduction in arousal threshold vs placebo: 18%
OSA patients [1]; listed as Atomoxetine
  OSA severity (apnea hypopnea index, AHI): did not systematically reduce OSA severity

## CNCCCN1c2ccccc2CCc2ccccc21 [desipramine]
[2]; 1 night, 14 OSA patients
  airway collapsibility compared to placebo: less collapsible airway
[2]; 1 night, 14 patients
  effect on OSA severity as a group: not significant
[2]; normal controls
  genioglossus activity during sleep: increased genioglossus activity
  upper airway collapsibility during sleep: reduced upper airway collapsibility
Patients with OSA
  success in reducing OSA severity / the AHI: modest success; also recorded: without success

## NCC1(CC(=O)O)CCCCC1 [gabapentin]
[3]
  increase of SWS (slow wave sleep): 20-60%

## CCN(CC)CC#CCOC(=O)C(O)(c1ccccc1)C1CCCCC1 (stereo not drawn) [oxybutynin]
OSA patients [1]
  NREM (atomoxetine) and REM (oxybutynin) specific AHI: did not respectively improve
  effect on ventilation during sleep: minor effect on ventilation
  oxygen saturation / oxygen levels compared to placebo: did not improve oxygen levels
  OSA severity (apnea hypopnea index, AHI): did not systematically reduce OSA severity

## CC(C)COc1ccc(CNC(=O)N(Cc2ccc(F)cc2)C2CCN(C)CC2)cc1 [pimavanserin]
OSA patients [4]
  increase of respiratory arousal threshold ascribed to pimavanserin: ~50%

## CNCCCC1c2ccccc2C=Cc2ccccc21 [protriptyline]
Patients with OSA; listed as Protriptyline
  success in reducing OSA severity / the AHI: without success
Patients with OSA
  success in reducing OSA severity / the AHI: modest success
OSA patients [5]; open label 4-week crossover trial, 9 patients (Hanzel)
  reduction in AHI from baseline: 42%
OSA patients [5]; [10]
  AHI during NREM sleep: no change
  oxygen saturation and daytime sleepiness: improvements
OSA patients [5]; protriptyline 20 mg, 14 days, 10 moderate-to-severe OSA patients (Whyte)
  NREM AHI as a group: did not change

## Cc1ccsc1C(=CCCN1CCC[C@@H](C(=O)O)C1)c1sccc1C [tiagabine]
OSA subjects
  AHI or oxygen saturation during sleep: without worsening
  increase in EEG slow wave activity: 16%

## O=c1n(CCCN2CCN(c3cccc(Cl)c3)CC2)nc2ccccn12 [trazodone]
OSA patients [6]; [11]
  AHI compared to placebo: did not affect
  improvement of arousal threshold: 30%
OSA patients [6]; trazodone 100 mg before bedtime, eight OSA patients (Heinzer)
  arousal threshold in response to hypercapnia: increased
OSA patients [6]; trazodone 100 mg, 15 unselected OSA patients (Smales)
  reduction of AHI: 26%

## Cc1ccc(-c2nc3ccc(C)cn3c2CC(=O)N(C)C)cc1 [zolpidem]
[7]; 21 subjects with and without OSA, zolpidem 10 mg
  increase in arousal threshold compared to placebo: ~30% and 25%
[7]; 21 subjects, p=0.03
  increase in median genioglossus muscle responsiveness compared to placebo: 3 fold
[7]; zolpidem 10 mg, 21 individuals
  genioglossus response to pharyngeal negative pressure compared to placebo: increased

## CN1CCN(C(=O)OC2c3nccnc3C(=O)N2c2ccc(Cl)cn2)CC1 (stereo not drawn) [zopiclone]
[7]; [12]
  AHI vs placebo: did not change
  arousal threshold vs placebo: significantly increased
OSA patients [8]
  AHI compared to placebo: did not significantly change
  increase in arousal threshold: 20%
OSA patients [9]
  change in AHI from baseline: −25%
  change in AHI from placebo: −15%
